Structures are written as SMILES. Values after ≈ are worked out from the molar mass of the structure shown.

For the series the following is noted: buffer; pH 7.4; 200.0 µM.
A word on the solubility (kinetic): it is solubility judged after dilution from a stock solution rather than from solid. As to `C=CCN(C(=O)c1ccccc1)C1CCS(=O)(=O)C1` (stereo not drawn), the kinetic solubility stood at 37.4 µg/mL (≈ 134 µM).
`N#C/C(=C/c1ccc(-c2ccccc2[N+](=O)[O-])o1)C(N)=O` yielded a solubility (kinetic) of 1.7 µg/mL (≈ 6 µM).
The figure for `O=C(CNC(=O)c1ccccc1F)N/N=C/c1ccco1` is above 43.4 µg/mL.
In turn, `Cc1ccsc1C(=O)N1CCN(c2ncccn2)CC1` returned a kinetic solubility above 43.3 µg/mL.
In turn, `Cc1cc(C)nc(SCC(=O)N(C)C)n1` registered a solubility (kinetic) of 31.7 µg/mL (≈ 141 µM).
With `Cc1cccc(C)c1NC(=O)CNC(=O)c1ccncc1`, the solubility (kinetic) is above 42.5 µg/mL.
For the compound `CCOC(=O)C(=O)NCC(c1ccco1)S(=O)(=O)c1cccs1` (stereo not drawn), the kinetic solubility was above 53.6 µg/mL.
In turn, `NC(=O)c1c(NC(=O)c2ccccc2)sc2c1CCCC2` registered a kinetic solubility of 0.8 µg/mL (≈ 2.66 µM).
Compound `CN(C)c1cccc(C(=O)NCC(c2ccco2)N(C)C)c1` (stereo not drawn) came in with a solubility (kinetic) above 45.2 µg/mL.
The compound `CC(=O)c1c(C)[nH]c(C(=O)COC(=O)Cc2ccccc2F)c1C` had a kinetic solubility above 49.7 µg/mL.
With `COc1cc(C(=O)Nc2ccc3c(c2)ncn3C)cc(OC)c1OC`, the kinetic solubility was above 51.2 µg/mL.
Take `Br.C=CCn1c(C)csc1=Nc1ccccc1C`: the solubility (kinetic) stood at 10.9 µg/mL.
Then `CC(=O)N/C(=C\c1ccccc1)C(=O)OCC(=O)N(C)C1CCS(=O)(=O)C1` (stereo not drawn), with above 59.2 µg/mL.
For `CCOC(=O)c1sc(-c2cccs2)nc1C`, the kinetic solubility was determined as 2.6 µg/mL (≈ 10.3 µM).
In turn, `CC1Oc2ccccc2N(CC(=O)NCc2ccc3c(c2)OCO3)C1=O` (stereo not drawn) yielded a solubility (kinetic) of 18.9 µg/mL (≈ 53.3 µM).
Then `C#CCn1cc(Cl)cc(C(=O)Nc2ccccc2)c1=O`, with 2.1 µg/mL (≈ 7.32 µM); and `COc1ccccc1NS(=O)(=O)c1ccc(C(=O)NCC(c2ccc(F)cc2)N2CCOCC2)cc1` (stereo not drawn), with above 77 µg/mL.
Then `Cc1ccc(S(=O)(=O)NCCN2CCOCC2)c(C)c1.Cl`, with above 50.2 µg/mL.
Then `Cc1ccc(NC(=O)c2cc3ccccc3o2)cc1Cl`, with below 0.6 µg/mL.
As to `CC(NS(=O)(=O)c1ccc(Cl)cc1)C(=O)N1CCOCC1` (stereo not drawn), the kinetic solubility is 39.7 µg/mL (≈ 119 µM).
`O=S(=O)(Nc1ccc2ccccc2n1)c1ccc2c(c1)CCO2` displayed a solubility (kinetic) of 45.9 µg/mL (≈ 141 µM).
`Cc1cc(N2CCOCC2)nc2ccc(Cl)cc12` displayed a solubility (kinetic) of 1.7 µg/mL (≈ 6.47 µM).
The compound `COc1cccc(Nc2nc(-c3ccccc3O)nc3ccccc23)c1` returned a kinetic solubility below 0.2 µg/mL.
For `COC(=O)c1ccc(CNC(=O)COC(=O)/C=C/c2cc(OC)c(OC)c(OC)c2)cc1`, the kinetic solubility came to 4.6 µg/mL (≈ 10.4 µM).
Consider `Cc1ccc(C(=O)NC2CC(C)(C)NC(C)(C)C2)cc1`, for which the kinetic solubility came out at 40.2 µg/mL (≈ 146 µM).
Take `CCOC(=O)CCCNC(=O)CCNC(=O)c1ccc(OCC(C)C)cc1`: the solubility (kinetic) is above 56.8 µg/mL.
In turn, `Cl.c1ccc(SCCOCCN2CCOCC2)cc1` gave a solubility (kinetic) of 43.4 µg/mL.
Consider `Cc1onc(-c2ccccc2)c1C(=O)N1CCCN2C(=O)c3ccccc3C21` (stereo not drawn), for which the solubility (kinetic) amounted to 48.7 µg/mL (≈ 130 µM).
Compound `Cc1ccc(C)c(NC(=O)CCN2C(=O)c3ccccc3C2=O)c1` had a solubility (kinetic) of 1.2 µg/mL (≈ 3.72 µM).
`COc1ccc(C(=O)Nc2ccc3c(c2)OCCO3)cc1[N+](=O)[O-]` came in with a kinetic solubility below 0.4 µg/mL.
The compound `Cc1ccc(NS(=O)(=O)c2ccc3[nH]c(=O)[nH]c3c2)cc1` returned a kinetic solubility of 5.4 µg/mL (≈ 17.8 µM).
The figure for `COc1ccc(S(=O)(=O)NCc2ccc(F)cc2)cc1OC` is above 48.8 µg/mL.
Then `O=S(=O)(NC1CCCCCCC1)c1ccc(F)cc1`, with above 42.8 µg/mL; and `C/C(=N\NC(=O)c1cccc([N+](=O)[O-])c1)c1cccnc1`, with above 42.6 µg/mL; and `O=[N+]([O-])c1cccc(S(=O)(=O)NCc2ccccn2)c1`, with 41.2 µg/mL (≈ 140 µM).
Regarding `CCc1c(C)nc(SCc2cccnc2)[nH]c1=O`, the kinetic solubility was above 39.2 µg/mL.
`CCc1ccc2[nH]c(C)c(CN3CCCCCC3)c(=O)c2c1` returned a solubility (kinetic) above 44.8 µg/mL.
The compound `NS(=O)(=O)c1ccc(CNC(=O)c2ccccn2)cc1` displayed a solubility (kinetic) above 43.7 µg/mL.
Then `CN1C(=O)N(C)C(=O)C2(Cc3ccccc3N3CCCC32)C1=O` (stereo not drawn), with 46 µg/mL (≈ 147 µM).
The compound `CCC(C)NS(=O)(=O)c1ccc(NC(=O)c2cccs2)cc1` (stereo not drawn) yielded a solubility (kinetic) of 2.6 µg/mL (≈ 7.68 µM).
Regarding `COc1ccc(OC)c2nc(-c3ccncc3)ccc12`, the kinetic solubility was above 39.9 µg/mL.
Compound `COCCNC(=O)c1oc2ccc3c(c2c1C)C(O)CC(C)(C)O3` (stereo not drawn) showed a solubility (kinetic) above 50 µg/mL.
`Cc1ccc(C)c(NC(=O)c2cc3ccccc3o2)c1`: the solubility (kinetic) amounted to 10.9 µg/mL (≈ 41.1 µM).
For the compound `CC(C)(C)C(=O)N(Cc1ccc(Cl)cc1)c1cnccn1`, the kinetic solubility was above 45.6 µg/mL.
In the case of `O=C(/C=C/c1cccs1)NC1CC1`, the kinetic solubility was above 29 µg/mL.
The figure for `C/C(=N\NC(=O)c1ccc(Cl)cc1)c1cccnc1` is above 41.1 µg/mL; for `Cc1cc(C)nc(SCC(=O)OCC(=O)Nc2ccccc2)n1` it is above 49.7 µg/mL.
The compound `O=S(=O)(NCc1ccco1)c1ccc(Cl)s1` had a solubility (kinetic) above 41.7 µg/mL.
Compound `Cc1ccc(N2CC(c3nc4ccccc4n3C)CC2=O)cc1` (stereo not drawn) returned a kinetic solubility above 45.8 µg/mL.
Compound `CN(C)CCN1C(=O)NC(C)(c2ccc([N+](=O)[O-])cc2)C1=O` (stereo not drawn) registered a kinetic solubility above 45.9 µg/mL.
Consider `CC(C)(C)C(=O)NC1(C(F)(F)F)NC(=O)N(c2ccccc2F)C1=O` (stereo not drawn), for which the solubility (kinetic) is above 54.2 µg/mL.
With `CCCOc1ccc(-c2csc3nc[nH]c(=O)c23)cc1`, the solubility (kinetic) was found to be 2.9 µg/mL (≈ 10.1 µM).
Take `COc1ccc(C(CNC(=O)Cc2c(F)cccc2Cl)N2CCCCC2)cc1` (stereo not drawn): the solubility (kinetic) is 59.1 µg/mL (≈ 146 µM).
`Cc1ccc(C(=O)NCC(=O)Nc2ccc(F)c(F)c2F)cc1` yielded a solubility (kinetic) of 2.3 µg/mL (≈ 7.14 µM).
As for `CCNC(=O)c1ccc(NS(=O)(=O)c2ccc3[nH]c(=O)[nH]c3c2)cc1`, the solubility (kinetic) is above 54.1 µg/mL.
The figure for `Brc1ccc(Nc2nc(-c3cccnc3)cs2)cc1` is 0.3 µg/mL (≈ 0.903 µM); for `O=C(CNC1CCCCC1)Nc1ccc(Cl)cc1` it is 38 µg/mL (≈ 142 µM).
Then `O=C(COC(=O)c1ccccc1F)Nc1ccc(S(=O)(=O)N2CCOCC2)cc1`, with 38 µg/mL (≈ 90 µM); and `COc1ccc(-n2c(N)cc(=O)[nH]c2=O)cc1`, with above 35 µg/mL; and `CC(C)C(NC(=O)c1c(F)cccc1F)C(=O)N1CCN(c2ncccn2)CC1` (stereo not drawn), with 12.1 µg/mL (≈ 30 µM).
The figure for `O=C(Nc1ccc(F)cc1F)N1CCCN(c2ccc(C(F)(F)F)cn2)CC1` is 7.3 µg/mL (≈ 18.2 µM); for `COc1cc2c(cc1NC(=O)CCC(=O)O)oc1ccccc12` it is 46.7 µg/mL (≈ 149 µM); for `Cc1cccc2nc(-c3ccco3)c(Nc3ccccc3)n12` it is 2.9 µg/mL (≈ 10 µM).
`O=C(CC1SC(N2CCCCC2)=NC1=O)Nc1cccc(C(=O)NCc2ccccc2)c1` (stereo not drawn) yielded a kinetic solubility above 67.6 µg/mL.
Regarding `COc1ccc(NC2CCCN(C(=O)c3ccncc3)C2)cc1` (stereo not drawn), the kinetic solubility was above 46.7 µg/mL.
In the case of `CCC(CC)NC(=O)Nc1ccccc1C(F)(F)F`, the kinetic solubility came out at 10.8 µg/mL (≈ 39.4 µM).
The figure for `CC1(C)CC(NC(=O)Nc2ccc([N+](=O)[O-])cc2)CC(C)(C)N1` is above 48.1 µg/mL.
In turn, `COc1cc(N2Cc3ccccc3C2)ccc1C=O` had a kinetic solubility of 1.8 µg/mL (≈ 7.11 µM).
For `O=C1Cc2cc(NS(=O)(=O)c3ccc(Cl)cc3)cc3c2N1CCC3`, the solubility (kinetic) was found to be 42.9 µg/mL (≈ 118 µM).
The compound `Cc1ccc(C(=O)O/N=C(\N)c2ccccn2)cc1C` gave a solubility (kinetic) of 2.6 µg/mL (≈ 9.65 µM).
The figure for `C=CCSc1nc2ccccc2n2cnnc12` is above 36.3 µg/mL.
The compound `Nc1nc(Cl)cc(-c2ccccc2)n1` yielded a kinetic solubility of 29.3 µg/mL (≈ 142 µM).
For the compound `O=C(NCCc1ccc(F)cc1)c1ccc([N+](=O)[O-])cc1`, the solubility (kinetic) was 4.6 µg/mL (≈ 16 µM).

The values above are taken from PubChem BioAssay AID1996.
